Experiments:
[1] = target: T1, human σ1 receptor (Homo sapiens, UniProt Q99720); test: Human σ1 receptor radioligand assay ([3H](+)-pentazocine, transfected HEK-293 membranes); conditions: class scale, read-out: Binding σ-1 Ki
T1 construct: expressed in transfected cells; host or cells: HEK-293
Method: Transfected HEK-293 membranes (7 μg) were incubated with 5 nM of [^3H](+)-pentazocine in assay buffer containing Tris-HCl 50 mM at pH 8. NBS (non-specific binding) was measured by adding 10 μM haloperidol. The binding of the test compound was measured at either one concentration (% inhibition at 1 or 10 μM) or five different concentrations to determine affinity values (Ki). Plates were incubated at 37° C. for 120 minutes. After the incubation period, the reaction mix was then transferred to MultiScreen HTS, FC plates (Millipore), filtered and plates were washed 3 times with ice-cold 10 mM Tris-HCL (pH7.4). Filters were dried and counted at approximately 40% efficiency in a MicroBeta scintillation counter (Perkin-Elmer) using EcoScint liquid scintillation cocktail.

[2] = target: T2, human σ2/TMEM97 receptor (Homo sapiens, UniProt Q5BJF2); test: Binding assay to human σ2/TMEM97 receptor ([3H]-DTG, transfected HEK-293 membranes); conditions: class scale, read-out: Binding σ-2 Ki
T2 construct: expressed in transfected cells; host or cells: HEK-293
T2 sequence (Q5BJF2 whole entry): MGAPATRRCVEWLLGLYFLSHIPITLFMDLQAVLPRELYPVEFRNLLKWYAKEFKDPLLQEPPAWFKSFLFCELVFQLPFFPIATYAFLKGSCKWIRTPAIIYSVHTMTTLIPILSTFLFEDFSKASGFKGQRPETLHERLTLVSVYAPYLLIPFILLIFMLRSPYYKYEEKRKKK
Method: Transfected HEK-293 membranes (15 μg) were incubated with 10 nM [^3H]-1,3-Di-o-tolylguanidine (DTG) in assay buffer containing Tris-HCl 50 mM at pH 8.0. NSB (non-specific binding) was measured by adding 10 μM haloperidol. The binding of the test compound was measured at either one concentration (% inhibition at 1 or 10 μM) or five different concentrations to determine affinity values (Ki). Plates were incubated at 25° C. for 120 minutes. After the incubation period, the reaction mix was transferred to MultiScreen HTS, FC plates (Millipore), filtered and washed 3 times with ice-cold 10 mM Tris-HCL (pH 8.0). Filters were dried and counted at approximately 40% efficiency in a MicroBeta scintillation counter (Perkin-Elmer) using EcoScint liquid scintillation cocktail.

T1 sequence (Q99720 whole entry): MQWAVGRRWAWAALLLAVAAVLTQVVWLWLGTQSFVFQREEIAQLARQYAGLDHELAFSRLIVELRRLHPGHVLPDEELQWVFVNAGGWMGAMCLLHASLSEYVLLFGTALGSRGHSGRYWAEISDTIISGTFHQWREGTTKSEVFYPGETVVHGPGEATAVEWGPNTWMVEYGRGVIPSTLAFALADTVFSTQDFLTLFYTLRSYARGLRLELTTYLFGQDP

SMILES | Ki [1] [nM] | Ki [2] [nM]
Cc1cc(-c2nn(C)c(Cl)c2C(=O)NC2CC3(CCN(CCC(C)(C)C)CC3)C2)no1 [Example 106, 5-Chloro-N-(7-(3,3-dimethylbutyl)-7-azaspiro[3.5]nonan-2-yl)-1-methyl-3-(5-methylisoxazol-3-yl)-1H-pyrazole-4-carboxamide] | 100 to 500 | < 100
Cc1cc(-c2nn(C)c(Cl)c2CN2CCC3(CC2)CCN(CC(C)(C)C)CC3)no1 [Example 68, 3-(5-Chloro-1-methyl-4-((9-neopentyl-3,9-diazaspiro[5.5]undecan-3-yl)methyl)-1H-pyrazol-3-yl)-5-methylisoxazole] | 100 to 500 | < 100
Cc1cc(-c2nn(C)c(Cl)c2C(=O)N2CCC3(CCC(NCCC(C)(C)C)CC3)CC2)no1 [Example 96, (5-Chloro-1-methyl-3-(5-methylisoxazol-3-yl)-1H-pyrazol-4-yl)(9-((3,3-dimethylbutyl)amino)-3-azaspiro[5.5]undecan-3-yl)methanone] | > 1000 | 100 to 500
Cc1cc(-c2nn(C)c(Cl)c2CN2CCCC[C@H](NCCC(C)C)C2)no1 [Example 12, (S)-1-((5-Chloro-1-methyl-3-(5-methylisoxazol-3-yl)-1H-pyrazol-4-yl)methyl)-N-isopentylazepan-3-amine] | 100 to 500 | > 1000
CC(C)CCNC1CCCCN(Cc2c(-c3ccccn3)nn(C)c2Cl)C1 (stereo not drawn) [Example 26, 1-((5-Chloro-1-methyl-3-(pyridin-2-yl)-1H-pyrazol-4-yl)methyl)-N-isopentylazepan-3-amine] | 500 to 1000 | > 1000
CCCNCC1CCN(Cc2c(-c3cc(C)on3)nn(C)c2Cl)C1 (stereo not drawn) [Example 47, N-((1-((5-Chloro-1-methyl-3-(5-methylisoxazol-3-yl)-1H-pyrazol-4-yl)methyl)pyrrolidin-3-yl)methyl)propan-1-amine] | > 1000 | > 1000
Cc1cc(-c2nn(C)c(Cl)c2CN2CCCCC(NCC3CCOCC3)C2)no1 (stereo not drawn) [Example 4, 1-((5-Chloro-1-methyl-3-(5-methylisoxazol-3-yl)-1H-pyrazol-4-yl)methyl)-N-((tetrahydro-2H-pyran-4-yl)methyl)azepan-3-amine] | > 1000 | 500 to 1000
Cc1cc(-c2nn(C)c(Cl)c2CN2CCCCC(N(C)CC3CCOCC3)C2)no1 (stereo not drawn) [Example 81, 1-((5-Chloro-1-methyl-3-(5-methylisoxazol-3-yl)-1H-pyrazol-4-yl)methyl)-N-methyl-N-((tetrahydro-2H-pyran-4-yl)methyl)azepan-3-amine] | 100 to 500 | 100 to 500
Cc1cc(-c2nn(C)c(Cl)c2CN2CCCC(NCCC(C)C)CC2=O)no1 (stereo not drawn) [Example 118, 1-((5-Chloro-1-methyl-3-(5-methylisoxazol-3-yl)-1H-pyrazol-4-yl)methyl)-4-(isopentylamino)azepan-2-one] | > 1000 | 100 to 500
CCc1cc(-c2nn(C)c(Cl)c2CN2CCCCC(NCCC(C)C)C2)no1 (stereo not drawn) [Example 21, 1-((5-Chloro-3-(5-ethylisoxazol-3-yl)-1-methyl-1H-pyrazol-4-yl)methyl)-N-isopentylazepan-3-amine] | 500 to 1000 | 100 to 500
CC(C)CCNC1CCCCN(Cc2c(-c3cc(C(C)C)on3)nn(C)c2Cl)C1 (stereo not drawn) [Example 17, 1-((5-Chloro-3-(5-isopropylisoxazol-3-yl)-1-methyl-1H-pyrazol-4-yl)methyl)-N-isopentylazepan-3-amine] | 100 to 500 | > 1000
Cc1cc(-c2nn(C)c(Cl)c2CN2CCC(C3(NCCC(C)C)CC3)C2)no1 (stereo not drawn) [Example 62, 1-(1-((5-Chloro-1-methyl-3-(5-methylisoxazol-3-yl)-1H-pyrazol-4-yl)methyl)pyrrolidin-3-yl)-N-isopentylcyclopropanamine] | 500 to 1000 | 100 to 500
Cc1cc(-c2nn(C)c(Cl)c2CN2CCC3(CCN(CCC(C)(C)C)CC3)CC2)no1 [Example 53, 3-(5-Chloro-4-((9-(3,3-dimethylbutyl)-3,9-diazaspiro[5.5]undecan-3-yl)methyl)-1-methyl-1H-pyrazol-3-yl)-5-methylisoxazole] | 100 to 500 | < 100
Cc1cc(-c2nn(C)c(Cl)c2C(=O)N2CCC3(CCN(CCC(C)(C)C)C3)CC2)no1 [Example 87, (5-Chloro-1-methyl-3-(5-methylisoxazol-3-yl)-1H-pyrazol-4-yl)(2-(3,3-dimethylbutyl)-2,8-diazaspiro[4.5]decan-8-yl)methanone] | 500 to 1000 | < 100
Cc1conc1-c1nn(C)c(Cl)c1C(=O)N1CCC2(CCN(CCC(C)(C)C)CC2)CC1 [Example 100, (5-Chloro-1-methyl-3-(4-methylisoxazol-3-yl)-1H-pyrazol-4-yl)(9-(3,3-dimethylbutyl)-3,9-diazaspiro[5.5]undecan-3-yl)methanone] | 500 to 1000 | < 100
Cc1cc(-c2nn(C)c(Cl)c2CN2CC3(CCN(CCC(C)(C)C)CC3)CC2=O)no1 [Example 116, 2-((5-Chloro-1-methyl-3-(5-methylisoxazol-3-yl)-1H-pyrazol-4-yl)methyl)-8-(3,3-dimethylbutyl)-2,8-diazaspiro[4.5]decan-3-one] | 100 to 500 | < 100
Cc1conc1-c1nn(C)c(Cl)c1C(=O)N1CCCC2(CCN(CCC(C)(C)C)CC2)C1 [Example 103, (5-Chloro-1-methyl-3-(4-methylisoxazol-3-yl)-1H-pyrazol-4-yl)(9-(3,3-dimethylbutyl)-2,9-diazaspiro[5.5]undecan-2-yl)methanone] | 500 to 1000 | < 100

Second part, the compound after the results:

Ki [1] [nM] | Ki [2] [nM] | SMILES
< 100 | < 100 | CCc1cc(-c2nn(CC)c(Cl)c2C(=O)NC2CCC3(CC2)CN(CCC(C)(C)C)C3)no1 [Example 137, 5-Chloro-N-(2-(3,3-dimethylbutyl)-2-azaspiro[3.5]nonan-7-yl)-1-ethyl-3-(5-ethylisoxazol-3-yl)-1H-pyrazole-4-carboxamide]
< 100 | < 100 | Cn1nc(-c2cccc(C(F)(F)F)n2)c(C(=O)NC2CCC3(CC2)CCN(CCC(C)(C)C)CC3)c1Cl [Example 147, 5-Chloro-N-(3-(3,3-dimethylbutyl)-3-azaspiro[5.5]undecan-9-yl)-1-methyl-3-(6-(trifluoromethyl)pyridin-2-yl)-1H-pyrazole-4-carboxamide]
500 to 1000 | 100 to 500 | Cc1cc(-c2nn(C)c(Cl)c2C(=O)N2CCC3(CCN(Cc4ccc(F)c(F)c4)CC3)CC2)no1 [Example 130, (5-Chloro-1-methyl-3-(5-methylisoxazol-3-yl)-1H-pyrazol-4-yl)(9-(3,4-difluorobenzyl)-3,9-diazaspiro[5.5]undecan-3-yl)methanone]
< 100 | 100 to 500 | Cc1cc(-c2nn(C)c(Cl)c2CCN2CCCC[C@H](NCCC(C)C)C2)no1 [Example 119, (S)-1-(2-(5-Chloro-1-methyl-3-(5-methylisoxazol-3-yl)-1H-pyrazol-4-yl)ethyl)-N-isopentylazepan-3-amine]
500 to 1000 | < 100 | CCn1cc(-c2nn(C)c(Cl)c2C(=O)N2CCC3(CCN(CCC(C)(C)C)CC3)CC2)cn1 [Example 196, (5-Chloro-1′-ethyl-1-methyl-1H,1′H-[3,4′-bipyrazol]-4-yl)(9-(3,3-dimethylbutyl)-3,9-diazaspiro[5.5]undecan-3-yl)methanone]
100 to 500 | < 100 | Cc1cc(-c2nn(C)c(Cl)c2C(=O)N2CCCC3(CCN(Cc4ccc(F)c(F)c4)CC3)C2)no1 [Example 128, (5-Chloro-1-methyl-3-(5-methylisoxazol-3-yl)-1H-pyrazol-4-yl)(9-(3,4-difluorobenzyl)-2,9-diazaspiro[5.5]undecan-2-yl)methanone]
100 to 500 | < 100 | CCn1nc(-c2ccon2)c(C(=O)NC2CCC3(CC2)CN(CCC(C)(C)C)C3)c1Cl [Example 197, 5-Chloro-N-(2-(3,3-dimethylbutyl)-2-azaspiro[3.5]nonan-7-yl)-1-ethyl-3-(isoxazol-3-yl)-1H-pyrazole-4-carboxamide]
500 to 1000 | < 100 | CCn1ccc(-c2nn(C)c(Cl)c2C(=O)N2CCCC3(CCN(CCC(C)(C)C)CC3)C2)n1 [Example 138, (5-Chloro-1′-ethyl-1-methyl-1H,1′H-[3,3′-bipyrazol]-4-yl)(9-(3,3-dimethylbutyl)-2,9-diazaspiro[5.5]undecan-2-yl)methanone]
500 to 1000 | < 100 | CCc1nc(C)c(-c2nn(C)c(Cl)c2C(=O)N2CCCC3(CCN(CCC(C)(C)C)CC3)C2)o1 [Example 133, (5-Chloro-3-(2-ethyl-4-methyloxazol-5-yl)-1-methyl-1H-pyrazol-4-yl)(9-(3,3-dimethylbutyl)-2,9-diazaspiro[5.5]undecan-2-yl)methanone]
< 100 | 100 to 500 | CCn1nc(-c2ccon2)c(CC(=O)NCC2CCCN(CCC(C)(C)C)C2)c1Cl (stereo not drawn) [Example 212, 2-(5-Chloro-1-ethyl-3-(isoxazol-3-yl)-1H-pyrazol-4-yl)-N-((1-(3,3-dimethylbutyl)piperidin-3-yl)methyl)acetamide]

From patent US20240239781A1, “1H-PYRAZOLE DERIVATIVES AS SIGMA LIGANDS” (ACONDICIONAMIENTO TARRASENSE, priority 2021, published 2024)
